Measured values from patent US11339419B2, “Scavenger protein(s) for improved preservation of analyte detection sensor(s) and method(s) of use thereof” (Siemens Healthcare Diagnostics Inc., priority 2017, dated 2022).
“And” between values parts separate entries of the source, which are not always exact repeats. Equal entries are not always repeated.

Experiments:
Format in all cases: biochemical
creatininase (Toyobo) = assay: Toyobo Creatininase Enzyme Absorbance with BSA and MIT; conditions: for Creatininase Enzyme Absorbance / MEAN: Day 14, 100 ppm MIT
Description: Absorbance measurements of the creatininase enzyme(s) were taken via spectrophotometer for each aqueous solution (represented as columns 1-5 in Tables 5-8—column 6 is a blank), the absorbance being directly proportional to the enzyme activity being measured-which for Tables 5-8 is creatininase enzyme activity. Accordingly, the higher the absorbance measurement, the higher the enzyme activity of creatininase. Columns 7-11 represent five replicate readings in which the solution only contains BSA (i.e., there is no biocide(s) present in the solution). In addition, the mean values, standard deviations, and coefficients of variation are all presented for the enzyme activity/absorbance of each aqueous solution. All measurements were taken at 37° C.
As depicted in Table 6, creatininase (commercially offered for sale by Toyobo) enzyme activity is measured against various concentrations of MIT (biocide) and BSA (scavenger protein) over a period of 14 days (with absorbance measurement taken at 0, 4, and 14 days) for five different aqueous solutions (represented as columns 1-5—column 6 is a blank).

[1] = tested on: sarcosine oxidase (Toyobo); assay: Toyobo Sarcosine Oxidase Enzyme Absorbance with BSA and Proclin 300
Description: (§1) Absorbance measurements of the sarcosine oxidase enzyme(s) were taken via spectrophotometer for each aqueous solution (represented as columns 1-5 in Tables 1-4—column 6 is a blank), the absorbance being directly proportional to the enzyme activity being measured-which for Tables 1-4 is sarcosine oxidase enzyme activity. Accordingly, the higher the absorbance measurement, the higher the enzyme activity of sarcosine oxidase. […] In addition, the mean values, standard deviations, and coefficients of variation are also presented for the enzyme activity/absorbance of each aqueous solution. All measurements were taken at 37° C.

[2] = tested on: creatininase (BBI Solutions); assay: BBI Solutions Creatininase Enzyme Absorbance with BSA and Proclin 300
Description: as §1, with “creatininase” for “sarcosine oxidase”, “5-8—column” for “1-4—column”, “5-8” for “1-4”, “creatininase.” for “sarcosine oxidase.”, “all” for “also”

[3] = Day 0, BSA 5 mg/mL only, no Proclin 300, line of 0.7% Proclin 300
[4] = Day 0, BSA 5 mg/mL only, no Proclin 300, line of 1.4% Proclin 300
[5] = Day 0, BSA 25 mg/mL only, no Proclin 300, line of 0.7% Proclin 300
[6] = Day 0, BSA 25 mg/mL only, no Proclin 300, line of 1.4% Proclin 300
[7] = Day 0, BSA 50 mg/mL only, no Proclin 300, line of 0.7% Proclin 300
[8] = Day 0, BSA 50 mg/mL only, no Proclin 300, line of 1.4% Proclin 300
[9] = days 4 and 14, only BSA, no Proclin 300
[10] = Day 0, BSA 5 mg/mL only, no Proclin 300, listed as of 0.7% Proclin 300
[11] = Day 0, BSA 5 mg/mL only, no Proclin 300, listed as of 1.4% Proclin 300
[12] = Day 0, BSA 25 mg/mL only, no Proclin 300, listed as of 0.7% Proclin 300
[13] = Day 0, BSA 25 mg/mL only, no Proclin 300, listed as of 1.4% Proclin 300
[14] = Day 0, BSA 50 mg/mL only, no Proclin 300, listed as of 0.7% Proclin 300
[15] = Day 0, BSA 50 mg/mL only, no Proclin 300, listed as of 1.4% Proclin 300
[16] = Day 4, BSA 5 mg/mL only, no Proclin 300, listed as of 0.7% Proclin 300
[17] = Day 4, BSA 5 mg/mL only, no Proclin 300, listed as of 1.4% Proclin 300
[18] = Day 4, BSA 25 mg/mL only, no Proclin 300, listed as of 0.7% Proclin 300
[19] = Day 4, BSA 25 mg/mL only, no Proclin 300, listed as of 1.4% Proclin 300
[20] = Day 4, BSA 50 mg/mL only, no Proclin 300, listed as of 0.7% Proclin 300
[21] = Day 4, BSA 50 mg/mL only, no Proclin 300, listed as of 1.4% Proclin 300
[22] = Day 14, BSA 5 mg/mL only, no Proclin 300, listed as of 0.7% Proclin 300
[23] = Day 14, BSA 5 mg/mL only, no Proclin 300, listed as of 1.4% Proclin 300
[24] = Day 14, BSA 25 mg/mL only, no Proclin 300, listed as of 0.7% Proclin 300
[25] = Day 14, BSA 25 mg/mL only, no Proclin 300, listed as of 1.4% Proclin 300
[26] = Day 14, BSA 50 mg/mL only, no Proclin 300, listed as of 0.7% Proclin 300
[27] = Day 14, BSA 50 mg/mL only, no Proclin 300, listed as of 1.4% Proclin 300

bovine serum albumin [BSA]
Creatininase Enzyme Absorbance (creatininase (Toyobo); 5 mg/mL BSA): 1.155 and 1.123 and 1.105 and 1.133 and 1.156 | MEAN (creatininase (Toyobo); 5 mg/mL BSA): 0.91 | Creatininase Enzyme Absorbance (creatininase (Toyobo); 25 mg/mL BSA): 0.997 and 0.966 and 0.95 and 0.992 and 0.976 | MEAN (creatininase (Toyobo); 25 mg/mL BSA): 0.75 | Creatininase Enzyme Absorbance (creatininase (Toyobo); 50 mg/mL BSA): 0.854 and 0.822 and 0.792 and 0.828 and 0.832 | MEAN (creatininase (Toyobo); 50 mg/mL BSA): 0.60 | absorbance of the creatininase enzyme compared to samples containing 0 mg/mL of BSA (creatininase (Toyobo); days 4 and 14, 5, 25 and 50 mg/mL BSA, with MIT): increased absorbance | creatininase absorbance, solutions 7-11 (creatininase (Toyobo); days 4 and 14, only BSA, no MIT): increased (or at least maintained) | BSA concentration at which the creatininase absorbance measurement is highest (creatininase (Toyobo); days 4 and 14, with MIT): 5 mg/mL | Absorbance, solutions 7-11 [1, 3]: 1.419 | MEAN absorbance, solutions 7-11 [1, 3]: 1.39 | Absorbance, solutions 7-11 [1, 4]: 1.397 and 1.427 and 1.404 | MEAN absorbance, solutions 7-11 [1, 4]: 1.35 | Absorbance, solutions 7-11 [1, 5]: 1.443 | MEAN absorbance, solutions 7-11 [1, 5]: 1.40 | Absorbance, solutions 7-11 [1, 6]: 1.403 and 1.426 and 1.429 and 1.44 | MEAN absorbance, solutions 7-11 [1, 6]: 1.37 | Absorbance, solutions 7-11 [1, 7]: 1.418 | MEAN absorbance, solutions 7-11 [1, 7]: 1.39 | Absorbance, solutions 7-11 [1, 8]: 1.409 and 1.41 and 1.444 | MEAN absorbance, solutions 7-11 [1, 8]: 1.37 | MEAN absorbance, solutions 7-11 ([1]; Day 4, BSA 5 mg/mL only, no Proclin 300, line of 0.7% Proclin 300): 0.81 | MEAN absorbance, solutions 7-11 ([1]; Day 4, BSA 5 mg/mL only, no Proclin 300, line of 1.4% Proclin 300): 0.86 | MEAN absorbance, solutions 7-11 ([1]; Day 4, BSA 25 mg/mL only, no Proclin 300, line of 0.7% Proclin 300): 1.30 | MEAN absorbance, solutions 7-11 ([1]; Day 4, BSA 25 mg/mL only, no Proclin 300, line of 1.4% Proclin 300): 1.32 | MEAN absorbance, solutions 7-11 ([1]; Day 4, BSA 50 mg/mL only, no Proclin 300, line of 0.7% Proclin 300): 1.31 | MEAN absorbance, solutions 7-11 ([1]; Day 4, BSA 50 mg/mL only, no Proclin 300, line of 1.4% Proclin 300): 1.32 | MEAN absorbance, solutions 7-11 ([1]; Day 14, BSA 5 mg/mL only, no Proclin 300, line of 0.7% Proclin 300): 0.25 | MEAN absorbance, solutions 7-11 ([1]; Day 14, BSA 5 mg/mL only, no Proclin 300, line of 1.4% Proclin 300): 0.29 | MEAN absorbance, solutions 7-11 ([1]; Day 14, BSA 25 mg/mL only, no Proclin 300, line of 0.7% Proclin 300): 1.34 | MEAN absorbance, solutions 7-11 ([1]; Day 14, BSA 25 mg/mL only, no Proclin 300, line of 1.4% Proclin 300): 1.34 | MEAN absorbance, solutions 7-11 ([1]; Day 14, BSA 50 mg/mL only, no Proclin 300, line of 1.4% Proclin 300): 1.39 | absorbance of the sarcosine oxidase enzyme compared to samples containing 0 mg/mL of BSA ([1]; days 4 and 14, 5, 25 and 50 mg/mL BSA, with Proclin 300): increased absorbance | sarcosine oxidase absorbance, solutions 7-11 [1, 9]: increased (or at least maintained) | Absorbance, solutions 7-11 [2, 10]: 0.658 and 0.656 and 0.654 and 0.693 and 0.67 | MEAN absorbance, solutions 7-11 [2, 10]: 0.45 | Absorbance, solutions 7-11 [2, 11]: 0.65 and 0.644 and 0.679 and 0.656 and 0.652 | MEAN absorbance, solutions 7-11 [2, 11]: 0.44 | Absorbance, solutions 7-11 [2, 12]: 0.669 and 0.654 and 0.645 and 0.676 and 0.685 | MEAN absorbance, solutions 7-11 [2, 12]: 0.45 | Absorbance, solutions 7-11 [2, 13]: 0.613 and 0.607 and 0.624 and 0.644 and 0.627 | MEAN absorbance, solutions 7-11 [2, 13]: 0.41 | Absorbance, solutions 7-11 [2, 14]: 0.682 and 0.675 and 0.716 | MEAN absorbance, solutions 7-11 [2, 14]: 0.48 | Absorbance, solutions 7-11 [2, 15]: 0.593 and 0.598 and 0.617 and 0.624 and 0.606 | MEAN absorbance, solutions 7-11 [2, 15]: 0.39 | Absorbance, solutions 7-11 [2, 16]: 0.886 and 0.907 and 0.938 and 0.922 and 0.893 | MEAN absorbance, solutions 7-11 [2, 16]: 0.69 | Absorbance, solutions 7-11 [2, 17]: 0.863 and 0.829 and 0.895 and 0.929 and 0.882 | MEAN absorbance, solutions 7-11 [2, 17]: 0.65 | Absorbance, solutions 7-11 [2, 18]: 0.783 and 0.769 and 0.787 and 0.807 | MEAN absorbance, solutions 7-11 [2, 18]: 0.56 | Absorbance, solutions 7-11 [2, 19]: 0.757 and 0.715 and 0.735 and 0.756 and 0.767 | MEAN absorbance, solutions 7-11 [2, 19]: 0.52 | Absorbance, solutions 7-11 [2, 20]: 0.671 and 0.651 and 0.656 and 0.677 and 0.657 | MEAN absorbance, solutions 7-11 [2, 20]: 0.44 | Absorbance, solutions 7-11 [2, 21]: 0.671 and 0.657 and 0.676 and 0.674 and 0.645 | MEAN absorbance, solutions 7-11 [2, 21]: 0.44 | Absorbance, solutions 7-11 [2, 22]: 0.993 and 0.992 and 0.972 and 1.009 | MEAN absorbance, solutions 7-11 [2, 22]: 0.76 | Absorbance, solutions 7-11 [2, 23]: 0.987 and 0.959 and 0.967 and 1.007 and 0.986 | MEAN absorbance, solutions 7-11 [2, 23]: 0.75 | Absorbance, solutions 7-11 [2, 24]: 0.841 and 0.843 and 0.815 and 0.846 and 0.808 | MEAN absorbance, solutions 7-11 [2, 24]: 0.60 | Absorbance, solutions 7-11 [2, 25]: 0.825 and 0.799 and 0.805 and 0.829 and 0.817 | MEAN absorbance, solutions 7-11 [2, 25]: 0.59 | Absorbance, solutions 7-11 [2, 26]: 0.672 and 0.653 and 0.659 and 0.682 and 0.685 | MEAN absorbance, solutions 7-11 [2, 26]: 0.44 | Absorbance, solutions 7-11 [2, 27]: 0.652 and 0.643 and 0.64 and 0.67 and 0.655 | MEAN absorbance, solutions 7-11 [2, 27]: 0.42 | absorbance of the creatininase enzyme compared to samples containing 0 mg/mL of BSA ([2]; day 4, Proclin 300 0.7%, 5, 25 and 50 mg/mL BSA): mild increase | creatininase absorbance, solutions 7-11 [2, 9]: increased (or at least maintained)
